Among the test systems are SK-OV-3; OVCAR-5; UO-31; MCF7; RXF 393; Malme-3M; BT-549; U-251; ACHN; K562; HCC 2998; HT-29; OVCAR-4; HOP-62; MDA-MB-435; SF-268; HCT-15; TK-10; LOX IMVI; KM12.
Holding throughout (assay): inhibition of tumour cell growth, NCI panel, 48 h

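Where inhibition never reached the appropriate level, the endpoint shown equals the highest concentration tested. Otherwise, values were interpolated linearly from a five-concentration, 48-hour dose response in 96-well plates. GI50 is the concentration that inhibits growth by half.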 Activity calls are given as the source filed them. Rule as the data show it: active = GI50 up to about 1.1 µM and inactive = higher.

As for `CC(=O)OC1C(O)C(C)OC(OC2C(OC(=O)C3CCC4C(C3)OC3(CC(OC(=O)/C=C/c5ccccc5)C(C)CO3)C43CO3)OC(C)C(O)C2OC(C)=O)C1O` (stereo not given), the GI50 with SK-OV-3 is 0.0145 µM (active); in the assay on OVCAR-5, 0.0291 µM (active); in the assay on UO-31, 0.721 µM (active); with MCF7, 0.00429 µM (active); in the assay with RXF 393, 0.0319 µM (active); with Malme-3M it was 0.00507 µM (active). In addition, the GI50 is 0.00358 µM (active) in the assay on BT-549; 0.00679 µM (active) in the assay with U-251; 0.0925 µM (active) in the assay with ACHN; 0.00622 µM (active) in the assay on K562; 0.00358 µM (active) with HCC 2998; 0.00689 µM (active) in the assay on HT-29. Also, the GI50 is 0.00752 µM (active) in the assay with OVCAR-4; 0.00951 µM (active) in the assay on HOP-62; 0.000668 µM (active) in the assay on MDA-MB-435; 0.00849 µM (active) in the assay on SF-268; 0.718 µM in the assay with HCT-15; 0.0506 µM (active) in the assay with TK-10. Besides, the GI50 in the assay on LOX IMVI is 0.00463 µM (active); with KM12, 0.00912 µM (active).

For `C[S+](C)CC(=O)c1ccc2c(c1)Sc1ccccc1O2`, the GI50 in the assay on SK-OV-3 is 6.04 µM (inactive); in the assay on OVCAR-5, 5.87 µM (inactive); in the assay on UO-31 it was 3.08 µM (inactive); with MCF7, 1.7 µM (inactive); in the assay on RXF 393, 3.78 µM (inactive); with Malme-3M, 3.45 µM (inactive). Also, the GI50 was 2.18 µM (inactive) in the assay with BT-549; 7.19 µM (inactive) in the assay with U-251; 5.78 µM (inactive) with ACHN; 3.21 µM (inactive) in the assay with K562; 2.64 µM (inactive) in the assay with HCC 2998; 1.17 µM (inactive) with HT-29. The GI50 in the assay with OVCAR-4 was 3.44 µM (inactive); with HOP-62, 13.2 µM (inactive); in the assay with MDA-MB-435 it was 0.923 µM (active); in the assay with SF-268 it was 5.43 µM (inactive); with HCT-15, 2.47 µM; with TK-10 it was 5.38 µM (inactive). Besides, the GI50 in the assay with LOX IMVI was 3.18 µM (inactive); in the assay with KM12, 0.955 µM (active).

Turning to `C[N+](C)(C)CCCSc1nc2ccccc2[nH]1`, the GI50 in the assay on SK-OV-3 is > 100 µM (inactive); in the assay with OVCAR-5 it was 89.7 µM (inactive); with UO-31 it was > 100 µM (inactive); in the assay on MCF7 it was > 100 µM (inactive); in the assay with RXF 393, > 100 µM (inactive); in the assay on Malme-3M it was > 100 µM (inactive). Further, the GI50 with BT-549, in the assay with U-251, with ACHN, with K562, in the assay on HCC 2998 and with HT-29 was > 100 µM (inactive) in each case. Further, the GI50 in the assay on OVCAR-4 is > 100 µM (inactive); in the assay with HOP-62, > 100 µM (inactive); in the assay with MDA-MB-435 it was > 100 µM (inactive); in the assay with SF-268 it was > 100 µM (inactive); with HCT-15, more than 100 µM; in the assay on TK-10, > 100 µM (inactive). In addition, the GI50 in the assay on LOX IMVI and in the assay on KM12 was > 100 µM (inactive) throughout.

As for `CC(C)(C)OC(=O)C1CCC/C1=N/Nc1ccc([N+](=O)[O-])cc1[N+](=O)[O-]` (stereo not given), the GI50 is 43 µM (inactive) in the assay with SK-OV-3; 43.3 µM (inactive) in the assay on OVCAR-5; 17.6 µM (inactive) in the assay on UO-31; 30 µM (inactive) in the assay with MCF7; 33.2 µM (inactive) in the assay with RXF 393; 65.5 µM (inactive) with Malme-3M. Moreover, the GI50 is 24.9 µM (inactive) with BT-549; 22 µM (inactive) in the assay on U-251; 45.3 µM (inactive) in the assay with ACHN; 15.7 µM (inactive) in the assay with K562; 42.9 µM (inactive) in the assay with HCC 2998; 36.5 µM (inactive) in the assay with HT-29. Moreover, the GI50 with OVCAR-4 is 74.5 µM (inactive); in the assay with HOP-62 it was 45.6 µM (inactive); in the assay with MDA-MB-435, 21.2 µM (inactive); with SF-268, 41.8 µM (inactive); in the assay with HCT-15, 39.4 µM; in the assay on TK-10, 43.7 µM (inactive). The GI50 in the assay on LOX IMVI was 17.7 µM (inactive); in the assay with KM12 it was 54.7 µM (inactive).

Consider `COc1cc([C@H]2CC(=O)C[C@@H](c3cc(OC)c(OC)c(OC)c3)C23C(=O)c2ccccc2C3=O)cc(OC)c1OC`, for which the GI50 in the assay with SK-OV-3, with OVCAR-5, in the assay on UO-31, in the assay with MCF7, with RXF 393 and in the assay with Malme-3M was > 100 µM (inactive) each time. The GI50 in the assay with BT-549, in the assay with U-251, in the assay with ACHN, in the assay with K562, with HCC 2998 and with HT-29 was > 100 µM (inactive) each time. Also, the GI50 in the assay with OVCAR-4 is > 100 µM (inactive); in the assay with HOP-62, > 100 µM (inactive); with MDA-MB-435, > 100 µM (inactive); with SF-268, > 100 µM (inactive); in the assay with HCT-15, more than 100 µM; in the assay on TK-10 it was > 100 µM (inactive). The GI50 in the assay with LOX IMVI and in the assay with KM12 was > 100 µM (inactive) throughout.

On to `O=C1/C(=C/c2ccc(O)c([N+](=O)[O-])c2)CCC/C1=C\c1ccc(O)c([N+](=O)[O-])c1`, for which the GI50 is 26 µM (inactive) in the assay on SK-OV-3; 15.4 µM (inactive) with OVCAR-5; 15.2 µM (inactive) with UO-31; 12.3 µM (inactive) in the assay on MCF7; 10 µM (inactive) in the assay with RXF 393; 8.63 µM (inactive) with Malme-3M. The GI50 with BT-549 was 13.3 µM (inactive); with U-251, 9.33 µM (inactive); with ACHN it was 7.96 µM (inactive); with K562 it was 15.7 µM (inactive); in the assay on HCC 2998 it was 8.69 µM (inactive); in the assay with HT-29, 12.3 µM (inactive). The GI50 with OVCAR-4 was 18.9 µM (inactive); in the assay with HOP-62 it was 12.5 µM (inactive); in the assay on MDA-MB-435, 9.53 µM (inactive); in the assay with SF-268 it was 4.28 µM (inactive); in the assay with HCT-15, 12.4 µM; in the assay with TK-10, 23.2 µM (inactive). The GI50 was 9.89 µM (inactive) in the assay with LOX IMVI and 9.4 µM (inactive) with KM12.

Regarding `NC(N)=NCCC[C@H](N)C(=O)NCC(=O)N[C@@H](CC(=O)O)c1ncc(NC(=O)C(F)(F)F)o1`, the GI50 in the assay with SK-OV-3, in the assay with OVCAR-5, with UO-31, in the assay on MCF7, in the assay on RXF 393 and in the assay with Malme-3M was > 25 µM (inactive) throughout. Also, the GI50 with BT-549 is > 25 µM (inactive); in the assay on U-251, > 25 µM (inactive); with ACHN it was > 25 µM (inactive); in the assay on K562, > 25 µM (inactive); with HCC 2998, 17.8 µM (inactive); in the assay on HT-29, > 25 µM (inactive). In addition, the GI50 in the assay with OVCAR-4 was > 25 µM (inactive); in the assay with HOP-62 it was > 25 µM (inactive); in the assay with MDA-MB-435, > 25 µM (inactive); in the assay on SF-268, > 25 µM (inactive); in the assay with HCT-15, more than 25 µM; in the assay on TK-10, > 25 µM (inactive). Also, the GI50 in the assay on LOX IMVI and in the assay on KM12 was > 25 µM (inactive) each time.

As to `C=C(C)C12OC3(c4ccccc4)OC1C1C4OC4(CO)C(O)C4(O)C(=O)C(C)=CC4C1(O3)C(C)C2OC(=O)/C=C/C=C/c1ccccc1` (stereo not given), the GI50 is 1.15 µM (inactive) in the assay with SK-OV-3; 0.0802 µM (active) in the assay with OVCAR-5; 0.0702 µM (active) in the assay on UO-31; 0.222 µM (active) in the assay with MCF7; 0.207 µM (active) with RXF 393; 0.474 µM (active) in the assay with Malme-3M. Further, the GI50 is 0.203 µM (active) with BT-549; 0.197 µM (active) in the assay on U-251; < 0.0005 µM (active) with ACHN; < 0.0005 µM (active) in the assay on K562; < 0.0005 µM (active) in the assay with HCC 2998; 0.0836 µM (active) with HT-29. In addition, the GI50 with OVCAR-4 is 0.173 µM (active); with HOP-62, 0.551 µM (active); in the assay on MDA-MB-435, < 0.0005 µM (active); in the assay with SF-268 it was 0.247 µM (active); in the assay on HCT-15, 0.258 µM; in the assay on TK-10, < 0.0005 µM (active). Further, the values for the GI50 with LOX IMVI and with KM12 were 0.0968 µM (active) and 0.156 µM (active), respectively.

On to `CO[C@H]1[C@@H](O)[C@@H](C)O[C@@H](O[C@H]2CC[C@@]3(C)[C@H](CC[C@@H]4[C@@H]3CC[C@]3(C)[C@@H](C5=CC(=O)OC5)[C@@H](OC(C)=O)C[C@]43O)C2)[C@@H]1O` [NERITALOSIDE], for which the GI50 with SK-OV-3 was 0.0807 µM (active); in the assay on OVCAR-5 it was 0.0914 µM (active); with UO-31, 0.0177 µM (active); in the assay on MCF7, 0.16 µM (active); with RXF 393, 0.0164 µM (active); with Malme-3M, 0.016 µM (active). Further, the GI50 was 0.0331 µM (active) in the assay with BT-549; 0.0798 µM (active) in the assay on U-251; 0.0188 µM (active) with ACHN; 0.141 µM (active) with K562; 0.23 µM (active) with HCC 2998; 0.0461 µM (active) in the assay with HT-29. For the same molecule, the GI50 in the assay on OVCAR-4 is 0.0601 µM (active); in the assay with HOP-62, 0.0253 µM (active); in the assay with MDA-MB-435, 0.124 µM (active); in the assay with SF-268, 0.024 µM (active); in the assay with HCT-15, 0.0973 µM; with TK-10, 0.0164 µM (active). Besides, the values for the GI50 in the assay on LOX IMVI and in the assay on KM12 were 0.0708 µM (active) and 0.157 µM (active), respectively.

For the molecule `COc1cccc2c1C(=O)OC2c1cccc2ccccc12` (stereo not given), the GI50 is > 73.6 µM (inactive) in the assay with SK-OV-3; > 100 µM (inactive) in the assay on OVCAR-5; > 100 µM (inactive) with UO-31; 31.6 µM (inactive) in the assay with MCF7; 31.5 µM (inactive) in the assay with RXF 393; > 100 µM (inactive) with Malme-3M. In addition, the GI50 was > 100 µM (inactive) with BT-549; 67.5 µM (inactive) in the assay on U-251; > 100 µM (inactive) with ACHN; > 100 µM (inactive) in the assay on K562; > 100 µM (inactive) with HCC 2998; > 100 µM (inactive) in the assay with HT-29. For the same molecule, the GI50 in the assay on OVCAR-4 was 37.8 µM (inactive); in the assay with HOP-62 it was 36 µM (inactive); with MDA-MB-435 it was > 100 µM (inactive); in the assay with SF-268, 72.8 µM (inactive); with HCT-15 it was more than 100 µM; in the assay on TK-10, > 73.3 µM (inactive). The GI50 in the assay with LOX IMVI and with KM12 was > 100 µM (inactive) throughout.
